Test results taken from US5525627A, “Esters of acyl carnitines with long-chain aliphatic alcohols and pharmaceutical compositions containing same having antimycotic activity” (Sigma-Tau Industrie Farmaceutiche Riunite S.p.A., priority 1992, dated 1996).

What was measured:
[1] = Assessment of behaviour and mortality in mice (Irwin's method); set-up: species or system mice (male Crl:(CD-1)(ICR)BR); settings: mouse, in vivo; oral, dose 1000 (unit inferred), 4 animals/dose
Protocol: (§1) ASSESSMENT OF BEHAVIOUR AND MORTALITY IN MICE
(§2) The assessment of normal behaviour in mice was carried out following S. Irwin's method (Psychopharmacologia, 13, 222 [1968]). This method allows alterations in some behavioural, neurophysiologic and neurovegetative parameters to be detected, which are directly observable by the researcher. The study was conducted using male Crl:(CD-1)(ICR)BR mice (Charles River-Italy) weighing 22-25 g. following oral administration of the compounds suspended in carboxymethylcellulose (0.5% by weight in H2 O) to groups of 4 animals/dose.
(§3) The animals were continously kept under observation for five hours following treatment and twice a day in the subsequent five days. Mortality was also observed during the overall test period.

[2] = system: mice; test: as above; set-up: species or system mice (male Crl:(CD-1)(ICR)BR); settings: mouse, in vivo, po
Protocol: as §1, §2, §3

[3] = system: Candida albicans (562); test: MIC for yeast and yeast-like strains; format: cell-based; settings: 48 hours, 35° C., read-out: Minimal Inhibitory Concentration (MIC)
Protocol: (§4) The following strains were used (the number of strains is in brackets): Candida (13); Criptococcus (2); Saccharormyces (1); Torulopsis (1).
(§5) Yeast Nitrogen Base supplemented with 0.15% asparagine and 1.0% glucose (as carbon source) was the medium utilized in the assays.
(§6) This medium was buffered with 0.165 M 2-(N-morpholino) propane sulfonic acid (MOPS), a non-chelating buffer. […]
(§7) The inoculum was prepared from an overnight broth culture (a 48-hour culture only for Cryptococcus) in Sabouraud broth and appropriately diluted to yield a final suspension containing approximately 5.0×10^6 Colony Forming Units per ml (CFU/ml), when compared to the Mc Farland's standard control (BRAY W. E., Clinical Laboratory Methods, 5th Ed. C. V. MOSBY, St. Louis, Mo, 1957).
(§8) After further diluting (1:50), a […] volume of such fungal suspensions and an equal volume of the substance solutions were distributed into each well of a microtiter plate (96 wells, round bottom). Such a procedure eventually allowed for an "in vitro" antimycotic activity assay utilizing final fungal inocula of approximately 5.0×10^4 CFU/ml.

[4] = system: Candida albicans (A 54); test: MIC for yeast and yeast-like strains; format: cell-based; settings: 48 hours, 35° C., read-out: Minimal Inhibitory Concentration (MIC)
Protocol: as §4, §5, §6, §7, §8

[5] = system: Candida albicans (Ca 2); test: MIC for yeast and yeast-like strains; format: cell-based; settings: 48 hours, 35° C., read-out: Minimal Inhibitory Concentration (MIC)
Protocol: as §4, §5, §6, §7, §8

[6] = system: Candida tropicalis (5705); test: MIC for yeast and yeast-like strains; format: cell-based; settings: 48 hours, 35° C., read-out: Minimal Inhibitory Concentration (MIC)
Protocol: as §4, §5, §6, §7, §8

[7] = system: Cryptococcus neoformans (4711); test: MIC for yeast and yeast-like strains; format: cell-based; settings: 48 hours, 35° C., read-out: Minimal Inhibitory Concentration (MIC)
Protocol: as §4, §5, §6, §7, §8

[8] = system: Saccharomyces cerevisiae (ATCC 7752); test: MIC for yeast and yeast-like strains; format: cell-based; settings: ATCC7752, 48 hours, 35° C., read-out: Minimal Inhibitory Concentration (MIC)
Protocol: as §4, §5, §6, §7, §8

[9] = system: Torulopsis candida (D.S.); test: MIC for yeast and yeast-like strains; format: cell-based; settings: Suzukiozyma candida; 48 hours, 35° C.; read-out: Minimal Inhibitory Concentration (MIC)
Protocol: as §4, §5, §6, §7, §8

[10] = system: Candida albicans (PG); test: MIC and MFC for yeast and yeast-like strains; format: cell-based; settings: 48 hours, 35° C., read-out: Minimal Inhibitory Concentration (MIC)
Protocol: as §4, §5
(§9) This medium was buffered with 0.165 M 2-(N-morpholino) propane sulfonic acid (MOPS), a non-chelating buffer.
(§10) Antimicrob. Agents Cheroother. Aug. 34.8:1542-1545).
as §7, §8
(§11) The minimal fungicidal concentration was evaluated by spot-transferring onto Petri dishes, containing Sabouraud agar, 0.01-ml volumes of all the samples showing no visible fungal growth.

[11] = system: Candida albicans (ATCC 2091); test: MIC for yeast and yeast-like strains; format: cell-based; settings: ATCC2091, 48 hours, 35° C., read-out: Minimal Inhibitory Concentration (MIC)
Protocol: as §4, §5, §9, §10, §7, §8

[12] = system: Candida pseudotropicalis (EC 1); test: MIC for yeast and yeast-like strains; format: cell-based; settings: Kluyveromyces marxianus; 48 hours, 35° C.; read-out: Minimal Inhibitory Concentration (MIC)
Protocol: as §4, §5, §9, §10, §7, §8

[13] = system: yeast-like fungi; test: MIC / MFC for yeast-like fungi, all strains; format: cell-based, Candida, Cryptococcus, Saccharomyces, Torulopsis; settings: versus susceptible strains; read-out: Mean MIC values
Protocol: as §4, §5, §6, §7, §8, §11

[14] = system: Aspergillus fumigatus (1/A); test: MIC for filamentous fungi; format: cell-based; settings: read-out: Minimal Inhibitory Concentration (MIC)
Text: (§12) The following strains were used (the number of strains is in brackets): Aspergillus (5); Fusarium (1); Mucor (1); Penicillium (1).
(§13) The tested substances were: ST 712, ST 722, ST 982, ST 983, ST 1000, ST 1001, ST 1032, ST 1033, ST 1034, ST 1036, ST 1037, ST 1038, ST 1050, ST 1051, ST 1052, ST 1053. The assay medium was the same as the one used in the previous study. The conidia from 72-hour cultures in Sabouraud agar, collected by washing with Sabouraud medium and Tween 80 (one drop of Tween per 10 ml of medium), were utilized as inoculum (5.0×10^4 CFU/ml).
(§14) The assay was performed using the same procedure as described for yeast-like fungi.
(§15) Also the evaluation of MIC and MFC was as reported previously.

[15] = system: Aspergillus fumigatus (2/A); test: MIC for filamentous fungi; format: cell-based; settings: read-out: Minimal Inhibitory Concentration (MIC)
Text: as §12, §13, §14, §15

[16] = system: Aspergillus fumigatus (ATCC 28212); test: MIC for filamentous fungi; format: cell-based; settings: ATCC28212, read-out: Minimal Inhibitory Concentration (MIC)
Text: as §12, §13, §14, §15

[17] = system: Aspergillus fumigatus (C/1); test: MIC for filamentous fungi; format: cell-based; settings: read-out: Minimal Inhibitory Concentration (MIC)
Text: as §12, §13, §14, §15

[18] = system: Aspergillus niger (ATCC 16404); test: MIC for filamentous fungi; format: cell-based; settings: ATCC16404, read-out: Minimal Inhibitory Concentration (MIC)
Text: as §12, §13, §14, §15

[19] = system: Mucor mucedo (ATCC 7941); test: MIC for filamentous fungi; format: cell-based; settings: ATCC7941, read-out: Minimal Inhibitory Concentration (MIC)
Text: as §12, §13, §14, §15

[20] = system: filamentous fungi; test: MIC / MFC for filamentous fungi, all strains; format: cell-based, Aspergillus, Fusarium, Mucor, Penicillium; settings: versus susceptible strains; read-out: Mean MIC values
Text: as §12, §13, §14, §15

## CCCCCCCCCCCOC(=O)C[C@H](C[N+](C)(C)C)OC(=O)C(C)C [ST 712, ISOBUTYRYL-L-CARNITINE UNDECYL ESTER CHLORIDE]
[1]
  mortality at 120 h: 0%
[2]
  Symptoms: NONE
[3]
  MIC: 12.5 µg/mL
[4]
  MIC: 12.5 µg/mL
[5]
  MIC: 6.25 µg/mL
[6]
  MIC: 3.12 µg/mL
[7]
  MIC: 3.12 µg/mL
[8]
  MIC: 6.25 µg/mL
[9]
  MIC: 12.5 µg/mL
[10]
  MIC: 12.5 µg/mL
[11]
  MIC: 12.5 µg/mL
[12]
  MIC: 12.5 µg/mL
[13]
  MIC: 9.37 µg/mL
[14]
  MIC: 25 µg/mL
[15]
  MIC: 25 µg/mL
[16]
  MIC: 25 µg/mL
[17]
  MIC: 25 µg/mL
[18]
  MIC: 50 µg/mL
[19]
  MIC: 50 µg/mL
[20]
  MIC: 30 µg/mL
